Experimental data reported in ChEMBL document CHEMBL5579801, “Novel orexin receptor agonists based on arene- or pyridine-fused 1,3-dihydro-2H-imidazole-2-imines” (Bioorg Med Chem Lett, 2024).
pEC50: −log10 of the molar value.

Columns and labels:
Orexin receptor type 2 = target: T1, Orexin receptor type 2 (Homo sapiens, UniProt O43614); test: Agonist activity at human OX2R expressed in human HEK293 cells co-transfected with human Galphaq assessed as accumulation of inositol phosphate by scintillation counter analysis
T1 sequence (O43614 whole entry): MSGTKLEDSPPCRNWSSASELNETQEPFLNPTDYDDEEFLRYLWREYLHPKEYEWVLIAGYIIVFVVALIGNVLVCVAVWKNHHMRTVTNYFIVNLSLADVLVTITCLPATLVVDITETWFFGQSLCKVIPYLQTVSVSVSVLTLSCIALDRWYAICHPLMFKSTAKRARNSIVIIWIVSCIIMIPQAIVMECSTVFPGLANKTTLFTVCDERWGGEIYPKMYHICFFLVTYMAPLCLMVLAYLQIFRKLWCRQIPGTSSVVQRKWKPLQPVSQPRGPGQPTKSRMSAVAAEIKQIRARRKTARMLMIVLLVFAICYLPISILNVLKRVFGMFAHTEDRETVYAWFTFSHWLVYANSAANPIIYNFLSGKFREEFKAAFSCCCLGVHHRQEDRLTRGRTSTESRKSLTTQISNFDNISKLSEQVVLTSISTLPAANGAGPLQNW

[1] = Half life in mouse plasma at 5 mg/kg,iv administration; type: ADME, organism-based
[2] = Cmax in mouse plasma at 5 mg/kg,iv administration; type: ADME, organism-based
[3] = Tmax in mouse plasma at 5 mg/kg,iv administration; type: ADME, organism-based
[4] = AUClast in mouse plasma at 5 mg/kg,iv administration; type: ADME, organism-based
[5] = Half life in mouse brain at 5 mg/kg,iv administration; type: ADME, organism-based
[6] = Cmax in mouse brain at 5 mg/kg,iv administration; type: ADME, organism-based
[7] = Tmax in mouse brain at 5 mg/kg,iv administration; type: ADME, organism-based
[8] = AUClast in mouse brain at 5 mg/kg,iv administration; type: ADME, organism-based; conditions: in vivo
HEK293 = test: Cytotoxicity against human HEK293 cells upto 100 uM incubated for 3 days; type: toxicity, cell-based; conditions: hek293, 72 h, time 3 day
[9] = Ratio of AUC in mouse brain to plasma at 5 mg/kg,iv administration; type: ADME, organism-based; conditions: read-out: Ratio AUC
[10] = Ratio of Cmax in mouse brain to plasma at 5 mg/kg,iv administration; type: ADME, organism-based

Compound	pEC50 (Orexin receptor type 2)	further results
Cc1ccc(C[C@@H](CNC(=O)c2ccco2)n2c(=N)n(Cc3ccc(C)cc3)c3ccccc32)cc1	< 5.00	–
COCOC[C@H](Cc1ccc(C)cc1)n1c(=N)n(C(C)c2ccc(C)cc2)c2cccnc21 (stereo in doubt; 62b)	5.24	–
Cc1ccc(C[C@@H](CNC(=O)CC(F)(F)F)n2c(=N)n(Cc3ccc(C)cc3)c3ccccc32)cc1	5.19	–
Cc1ccc(CC(CNC(=O)Cc2ccncc2)n2c(=N)n(Cc3ccc(C)cc3)c3ccccc32)cc1 (racemic)	< 5.00	–
Cc1ccc(C[C@@H](CS(C)(=O)=O)n2c(=N)n(Cc3ccc(C)cc3)c3ccccc32)cc1	5.35	–
Cc1ccc(CC(CNC(=O)Cc2ccccc2)n2c(=N)n(Cc3ccc(C)cc3)c3ccccc32)cc1 (racemic)	< 5.00	–
Cc1ccc(C[C@@H](CNC(=O)c2cccc(C)n2)n2c(=N)n(Cc3ccc(C)cc3)c3ccccc32)cc1	< 5.00	–
COC[C@H](Cc1ccc(C)cc1)n1c(=N)n(C(c2ccc(C)cc2)C2CCC2)c2ccccc21 (mixture of isomers)	< 5.00	–
Cc1ccc(CC(CNC(=O)C2CC2)n2c(=N)n(Cc3ccc(C)cc3)c3ccccc32)cc1 (racemic)	5.28	–
Cc1ccc(C[C@@H](CO)n2c(=N)n(Cc3ccc(C)cc3)c3ccc(C)cc32)cc1	< 5.00	–
Cc1ccc(C[C@@H](CNS(=O)(=O)C(F)F)n2c(=N)n(Cc3ccc(C)cc3)c3ccccc32)cc1	5.19	–
Cc1ccc(C[C@@H](C[S+](C)[O-])n2c(=N)n(Cc3ccc(C)cc3)c3ccccc32)cc1 (stereo not given in full)	5.15	–
Cc1ccc(C[C@@H](CSC(C)C)n2c(=N)n(Cc3ccc(C)cc3)c3ccccc32)cc1	5.27	–
Cc1ccc(CC(CNC(=O)C(F)(F)F)n2c(=N)n(Cc3ccc(C)cc3)c3ccccc32)cc1 (racemic)	5.18	–
Cc1ccc(CC(CNC(=O)Cc2ncccn2)n2c(=N)n(Cc3ccc(C)cc3)c3ccccc32)cc1 (racemic)	< 5.00	–
CCC(=O)NCC(Cc1ccc(C)cc1)n1c(=N)n(Cc2ccc(C)cc2)c2ccccc21 (racemic)	5.09	–
Cc1ccc(C[C@@H](C(=O)N2CC(C#N)C2)n2c(=N)n(C(C)c3ccc(C)cc3)c3cccnc32)cc1 (stereo not given in full)	–	half-life [1]: 40 min; Cmax [2]: 0.651 µg/mL; Tmax [3]: 10 min; AUC(0-t) [4]: 0.518 µg·h/mL; half-life [5]: 47 min; Cmax [6]: 218 ng/g; Tmax [7]: 10 min; AUClast [8]: 12554 ng·min/g; Activity (HEK293): Non-Toxic
Cc1ccc(CC(CNC(=O)CCCO)n2c(=N)n(Cc3ccc(C)cc3)c3ccccc32)cc1 (racemic)	< 5.00	–
COCCOC[C@H](Cc1ccc(C)cc1)n1c(=N)n(C(C)c2ccc(C)cc2)c2cccnc21 (stereo in doubt; 63b)	5.33	–
Cc1ccc(CC(CNC(=O)CN)n2c(=N)n(Cc3ccc(C)cc3)c3ccccc32)cc1 (racemic)	< 5.00	–
Cc1ccc(CC(CNC(=O)N(C)C)n2c(=N)n(Cc3ccc(C)cc3)c3ccccc32)cc1 (racemic)	5.38	–
Cc1ccc(C[C@@H](COCCC#N)n2c(=N)n(C(C)c3ccc(C)cc3)c3cccnc32)cc1 (stereo in doubt; 69b)	5.25	–
Cc1ccc(CC(CNS(=O)(=O)C(F)(F)F)n2c(=N)n(Cc3ccc(C)cc3)c3ccccc32)cc1 (racemic)	< 5.00	–
Cc1ccc(C[C@@H](CO)n2c(=N)n(Cc3ccc(C)cc3)c3cc(Cl)ccc32)cc1	< 5.00	–
Cc1ccc(C[C@@H](CNC(=O)CO)n2c(=N)n(C(C)c3ccc(C)cc3)c3cccnc32)cc1 (stereo in doubt; 68b)	< 5.00	–
Cc1ccc(C[C@@H](CNC(=O)c2ncccc2C)n2c(=N)n(Cc3ccc(C)cc3)c3ccccc32)cc1	< 5.00	–
Cc1ccc(CC(CNC(=O)c2ccccc2)n2c(=N)n(Cc3ccc(C)cc3)c3ccccc32)cc1 (racemic)	< 5.00	–
Cc1ccc(C[C@@H](CO)n2c(=N)n(Cc3ccc(C)cc3)c3ccc(C(F)(F)F)cc32)cc1	< 5.00	–
Cc1ccc(CC(CNC(=O)Cc2cccnc2)n2c(=N)n(Cc3ccc(C)cc3)c3ccccc32)cc1 (racemic)	5.33	–
Cc1ccc(C[C@@H](C(=O)N2CC3(CNC3)C2)n2c(=N)n(C(C)c3ccc(C)cc3)c3ccccc32)cc1 (mixture of isomers)	< 5.00	–

The next lines start with results.

pEC50 (Orexin receptor type 2)	Compound	further results
5.57	CCOC(=O)NCC(Cc1ccc(C)cc1)n1c(=N)n(Cc2ccc(C)cc2)c2ccccc21 (racemic)	–
6.47	COCCOC[C@H](Cc1ccc(C)cc1)n1c(=N)n(C(C)c2ccc(C)cc2)c2cccnc21 (stereo in doubt; 63c)	–
6.43	Cc1ccc(C[C@@H](COCCC#N)n2c(=N)n(C(C)c3ccc(C)cc3)c3cccnc32)cc1 (stereo in doubt; 69c)	–
5.63	CSC[C@H](Cc1ccc(C)cc1)n1c(=N)n(Cc2ccc(C)cc2)c2ccccc21	–
6.03	COCOC[C@H](Cc1ccc(C)cc1)n1c(=N)n(C(C)c2ccc(C)cc2)c2cccnc21 (stereo in doubt; 62c)	half-life [1]: 48 min; Cmax [2]: 0.741 µg/mL; Tmax [3]: 10 min; AUC(0-t) [4]: 0.673 µg·h/mL; half-life [5]: 34 min; Cmax [6]: 2460 ng/g; Tmax [7]: 10 min; AUClast [8]: 100501 ng·min/g; Kp [9]: 2.49; Kp [10]: 3.32; Activity (HEK293): Non-Toxic
5.73	COC(=O)NCC(Cc1ccc(C)cc1)n1c(=N)n(Cc2ccc(C)cc2)c2ccccc21 (racemic)	–
5.40	CCSC[C@H](Cc1ccc(C)cc1)n1c(=N)n(Cc2ccc(C)cc2)c2ccccc21	–
5.85	COC[C@H](Cc1ccc(C)cc1)n1c(=N)n(C(c2ccc(C)cc2)C(F)(F)F)c2ccccc21 (mixture of isomers)	–
5.71	COC[C@H](Cc1ccc(C)cc1)n1c(=N)n(C(c2ccc(C)cc2)C2CC2)c2ccccc21 (stereo in doubt; 61c)	–
6.36	Cc1ccc(C[C@@H](CNC(=O)CO)n2c(=N)n(C(C)c3ccc(C)cc3)c3ccccc32)cc1 (stereo in doubt; 65c)	half-life [1]: 230 min; Cmax [2]: 0.6 µg/mL; Tmax [3]: 10 min; AUC(0-t) [4]: 0.691 µg·h/mL; half-life [5]: 729 min; Cmax [6]: 15.3 ng/g; Tmax [7]: 30 min; AUClast [8]: 11291 ng·min/g; Kp [9]: 0.27; Kp [10]: 0.026; Activity (HEK293): Non-Toxic
5.40	Cc1ccc(C[C@@H](COCCN(C)C)n2c(=N)n(Cc3ccc(C)cc3)c3ccccc32)cc1	–
6.22	COC[C@H](Cc1ccc(C)cc1)n1c(=N)n(C(c2ccc(C)cc2)C2CC2)c2ccccc21 (stereo in doubt; 61b)	half-life [1]: 74 min; Cmax [2]: 0.841 µg/mL; Tmax [3]: 10 min; AUC(0-t) [4]: 0.986 µg·h/mL; half-life [5]: 134 min; Cmax [6]: 143 ng/g; Tmax [7]: 30 min; AUClast [8]: 38969 ng·min/g; Kp [9]: 0.66; Kp [10]: 0.17; Activity (HEK293): Non-Toxic
5.61	Cc1ccc(CC(CNC=O)n2c(=N)n(Cc3ccc(C)cc3)c3ccccc32)cc1 (racemic)	–
5.48	Cc1ccc(CC(CNC(=O)CN(C)C)n2c(=N)n(Cc3ccc(C)cc3)c3ccccc32)cc1 (racemic)	–
5.82	Cc1ccc(C[C@@H](CNC(=O)CO)n2c(=N)n(C(C)c3ccc(C)cc3)c3ccccc32)cc1 (stereo in doubt; 65b)	–
5.71	Cc1ccc(C[C@@H](CNC(=O)CO)n2c(=N)n(C(c3ccc(C)cc3)C(C)C)c3ccccc32)cc1 (mixture of isomers)	–
5.44	COCCCOC[C@H](Cc1ccc(C)cc1)n1c(=N)n(Cc2ccc(C)cc2)c2ccccc21	–
5.88	Cc1ccc(C[C@@H](CNC(=O)CO)n2c(=N)n(C(C)c3ccc(C)cc3)c3cccnc32)cc1 (stereo in doubt; 68c)	–
6.18	Cc1ccc(C[C@@H](CNC(=O)CO)n2c(=N)n(C(C)c3ccc(C)cc3)c3ccccc32)cc1 (mixture of isomers)	–
